{"source": "patent US6653287B1", "about": "“Use of leukemia inhibitory factor and endothelin antagonists” (Genentech, Inc., priority 1995, dated 2003)", "key": {"[1]": {"tested_on": "neonatal rat cardiac ventricular myocytes", "assay": "Neonatal rat cardiac myocyte hypertrophy assay (crystal violet stain, microscopic hypertrophy score)", "format": "cell-based", "text": "A miniaturized assay is preferably used to assay the suspected antagonist(s) for hypertrophy-inhibiting activity. In this assay the medium used allows the cells to survive at a low plating density without serum. By plating directly into this medium, washing steps are eliminated so that fewer cells are removed. The plating density is important: many fewer cells and the survival is reduced; many more cells and the myocytes begin to self-induce hypertrophy.\nThe preferred hypertrophy assay comprises:\n(a) pre-coating the wells of 96-well tissue culture plates with a medium containing calf serum, preferably D-MEM/F-12 medium containing 4% fetal calf serum, wherein preferably the wells are incubated with the medium for about eight hours at about 37°C.;\n(c) plating a suspension of myocytes in the inner 60 wells at 7.5×10^4 cells per mL in D-MEM/F-12 medium supplemented with insulin, transferrin, and aprotinin;\n(d) culturing the myocytes for at least 24 hours in the presence of LIF or endothelin;\n(e) adding the test substance;\n(f) culturing the cells with the test substance (preferably for about 24-72 hours, more preferably for about 48 hours); and\n(g) evaluating hypertrophy, preferably after crystal violet stain, by microscopic examination.\n(§1) Neonatal rat cardiac ventricular myocytes were cultured in 96-well plates 35 as described by Pennica et al., supra. Briefly, myocytes were isolated from one-day-old Sprague-Dawley rats by a series of collagenase digestions followed by Percoll™ gradient purification. Iwaki et al., J Biol Chem., 265: 13809-13817 (1990). The myocytes, which band at the lower gradient interface, were collected, washed twice, and re-suspended in D-MEM/F12 medium with 15% (vol/vol) fetal calf serum. The cells were diluted into serum-free D-MEM/F12 medium supplemented with 10 μg/mL transferrin, 1 μg/mL insulin, 1 μg/mL aprotinin, 2-mmol/L glutamine, 100 U/mL penicillin G, and 100 μg/mL streptomycin (assay medium) to a final density of 7.5×10^4 cells per mL. The final serum concentration of this assay medium with cells was <0.1%. Myocytes were plated 200 μL per well in 96-well, flat-bottomed plates that had previously been coated with D-MEM/F12 medium with 4% (vol/vol) fetal calf serum for 8 hours at 37° C. After 24 hours at 37° C. in 5% CO2, test substances were added. Forty-eight hours after the test substances were added, the cells were fixed and stained with 0.5% (wt/vol) crystal violet in methanol and formaldehyde, and the hypertrophy was scored on a scale of 1 to 7 by microscopic evaluation. Untreated cells were used as the negative control and scored as a 3. Toxic effects were scored from 0 to 2. The positive control in each assay was 100 μmol/L phenylephrine, which was scored as 7."}, "[2]": {"tested_on": "neonatal rat cardiac ventricular myocytes", "assay": "Myocyte morphology and contractile fiber organization (phallacidin f-actin stain, confocal microscopy)", "format": "cell-based", "conditions": "for organization of contractile fibers (f-actin): 48 hours exposure, fluorescent phallacidin stain", "protocol": "as §1\nThe myocytes were plated in 4-chamber Lab Tek™ glass chamber slides pre-coated for 8 hours with 4% (vol/vol) fetal calf serum in D-MEM/F12 medium and cultured for 24 hours. They were exposed to test substances for 48 hours and then washed 3× in phosphate buffered saline (PBS) and fixed in 95% (vol/vol) ethanol for 15 minutes. The slides were then washed 3×0 in PBS with 0.1% (vol/vol) Tween-20™ surfactant, blocked for 30 minutes with 1% (wt/vol) BSA in PBS with 0.1% Tween-20™ surfactant, and incubated with phallacidin conjugated to BODIPY FL™ brand reagent (10 μg/mL in 1% BSA in PBS) (Molecular Probes, Eugene Oreg.) for 40 minutes to stain the f-actin present in the contractile fibers. The slides were then washed 3× with PBS in 0.1% Tween-20™ surfactant. Images of the phallacidin-stained cells were acquired on a Ultima™ laser-scanning confocal microscope (Meridian Instruments, Okemos, Mich.). A 1.4 NA 60×™ oil-immersion objective was utilized coupled with 488-nm excitation, with the resulting fluorescence measured following a 525-nm long-pass filter. […] The final images were constructed with a maximum fluorescence projection algorithm by compressing the multiple z or depth images into a single two-dimensional representation."}, "[3]": {"tested_on": "neonatal rat cardiac ventricular myocytes", "conditions": "neonatal rat cardiac myocytes in culture; Pennica et al. 1995; cited from earlier work"}}, "note": "Square brackets hold non-standard residues; d marks the D form. Peptide text beside a SMILES is read from it."}
{"molecule": "CC(C)C[C@@H]1NC(=O)[C@@H](C(C)C)NC(=O)[C@@H]2CCCN2C(=O)[C@@H](CC(=O)O)NC(=O)[C@@H](Cc2c[nH]c3ccccc23)NC1=O", "note": "[BQ-123] (cyclo(L[dW][dD]P[dV]))", "values": [{"measurement": "inhibition of NCM hypertrophy activity", "setting": "[1]; FIG. 3, 100 μmol/L BQ-123, 50 μg/mL LIF Mab", "value": "partially inhibited"}, {"measurement": "blocking of hypertrophy activity induced by endothelin-1", "setting": "[1]; FIG. 4A/5A, BQ-123 1-100 μmol/L, LIF Mab 0.5-50 μg/mL", "value": "blocked"}, {"measurement": "blocking/neutralization of hypertrophy activity induced by mouse LIF", "setting": "[1]; FIG. 4B/5B, BQ-123 1-100 μmol/L, LIF Mab 0.5-50 μg/mL", "value": "not"}, {"measurement": "blocking of hypertrophy activity induced by phenylephrine", "setting": "[1]; FIG. 4C/5C, BQ-123 1-100 μmol/L, LIF Mab 0.5-50 μg/mL", "value": "not"}, {"measurement": "blocking of hypertrophy activity induced by CT-1", "setting": "[1]; FIG. 4D/5D, BQ-123 1-100 μmol/L, LIF Mab 0.5-50 μg/mL", "value": "not"}, {"measurement": "effect on myocyte morphology by itself", "setting": "[1]; inhibitor alone, no inducer", "value": "no effect"}, {"measurement": "morphology of myocytes treated with NCM plus inhibitor", "setting": "[2]; NCM and BQ-123 or LIF Mab", "value": "resembled those treated with purified LIF"}]}
{"molecule": "CC[C@H](C)[C@H](NC(=O)[C@H](CC(=O)O)NC(=O)[C@H](CC(C)C)NC(=O)[C@H](Cc1c[nH]cn1)NC(=O)[C@@H]1CSSC[C@H](N)C(=O)N[C@@H](CO)C(=O)N[C@H]2CSSC[C@H](NC(=O)[C@H](CCC(=O)O)NC(=O)[C@H](CCCCN)NC(=O)[C@H](CC(=O)O)NC(=O)[C@H](CCSC)NC(=O)[C@H](CC(C)C)NC(=O)[C@H](CO)NC(=O)[C@H](CO)NC2=O)C(=O)N[C@@H](C(C)C)C(=O)N[C@@H](Cc2ccc(O)cc2)C(=O)N[C@@H](Cc2ccccc2)C(=O)N1)C(=O)N[C@H](C(=O)N[C@@H](Cc1c[nH]c2ccccc12)C(=O)O)[C@@H](C)CC", "note": "[endothelin-1]", "values": [{"measurement": "hypertrophic response (myocyte cell size and ANP production)", "setting": "[1]; purified factors, even at nanomolar concentrations", "value": "partial hypertrophic responses"}, {"measurement": "morphology of myocytes", "setting": "[2]; 48-hour exposure to maximal concentrations", "value": "more compact with no processes"}, {"measurement": "organization of contractile fibers (f-actin)", "setting": "[2]", "value": "not organized in parallel, had a tangled appearance, and did not show prominent banding"}]}
{"molecule": "CNC[C@H](O)c1cccc(O)c1", "note": "[phenylephrine]", "values": [{"measurement": "hypertrophy score (positive control)", "setting": "[1]; 100 μmol/L phenylephrine, scale 1 to 7, untreated 3", "value": 7}, {"measurement": "organization of contractile fibers (f-actin)", "setting": "[2]", "value": "organized in parallel arrays with prominent banding"}]}
{"molecule": "CT-1: cardiotrophin-1, member of the family of proteins that bind to GH/cytokine receptors (protein, UniProt Q16619 1-201, looked up) Cardiotrophin-1: MSRREGSLEDPQTDSSVSLLPHLEAKIRQTHSLAHLLTKYAEQLLQEYVQLQGDPFGLPSFSPPRLPVAGLSAPAPSHAGLPVHERLRLDAAALAALPPLLDAVCRRQAELNPRAPRLLRRLEDAARQARALGAAVEALLAALGAANRGPRAEPPAATASAASATGVFPAKVLGLRVCGLYREWLSRTEGDLGQLLPGGSA", "values": [{"measurement": "hypertrophy activity among proteins that bind GH/cytokine receptors", "setting": "[3]", "value": "most potent hypertrophy activity"}]}
